From ChEMBL document CHEMBL1144775, “Secondary metabolites from three Florida sponges with antidepressant activity” (J Nat Prod, 2008)
The source made the active and inactive calls. The rule behind the calls is not given here.

Legend:
Mus musculus [1] = test: Antidepressant like activity in ip dosed Swiss Webster mouse assessed as reduction of immobility time by forced-swim test; format: functional, organism-based
Gallus gallus [2] = test: Antidepressant activity in Cockerels assessed as attenuation separation distress vocalization rate in final 30 mins of depression phase at 30 mg/kg, ip; format: functional, organism-based; set-up: dose 30 mg/kg
Gallus gallus [3] = test: Anxiolytic activity in Cockerels assessed as attenuation separation distress vocalization rate during first 5 mins in anxiety phase at 30 mg/kg, ip; format: functional, organism-based; set-up: dose 30 mg/kg
Mus musculus [4] = test: Antidepressant like activity in Swiss Webster mouse assessed as reduction of immobility time at 20 mg/kg, ip after 30 mins by forced-swim test; format: functional, organism-based; set-up: dose 20 mg/kg
Mus musculus [5] = species: Mus musculus; test: Sedative effect in Swiss Webster mouse assessed as locomotor activity; format: organism-based; conditions: in vivo

Structure (SMILES) | Activity (Mus musculus [1]) | Activity (Gallus gallus [2]) | Activity (Gallus gallus [3]) | Activity (Mus musculus [4]) | Activity (Mus musculus [5])
C=C1CCC[C@H]2[C@](C)(CC3=C(O)C(=O)C=C(OC)C3=O)[C@@H](C)CC[C@]12C | inactive |  |  |  | 
CN(C)CCc1c[nH]c2cc(Br)c(Br)cc12 |  | Active | Active | Active | 
CN1C(=N)N(C)/C(=C/c2c[nH]c3ccccc23)C1=O | inactive |  |  |  | 
CN(C)CCc1c[nH]c2ccc(Br)cc12 | inactive |  |  |  | Active
